From article PMC4476799, “Englerin A Agonizes the TRPC4/C5 Cation Channels to Inhibit Tumor Cell Line Proliferation” (PLoS ONE, 2015)

What was measured:
[1] = biological target: T1, TRPC4 (Homo sapiens, UniProt Q9UBN4); test: Electrophysiology (QPatch-HT automated patch clamp, voltage ramp); format: cell-based; conditions: 10 μM ML204 + 5 μM englerin A; Dox-induced TRPC4
T1 construct: host or cells: Flp-In T-REx-293 (called HEK293T with Dox-inducible TRPC4)
T1 sequence (Q9UBN4 1-977): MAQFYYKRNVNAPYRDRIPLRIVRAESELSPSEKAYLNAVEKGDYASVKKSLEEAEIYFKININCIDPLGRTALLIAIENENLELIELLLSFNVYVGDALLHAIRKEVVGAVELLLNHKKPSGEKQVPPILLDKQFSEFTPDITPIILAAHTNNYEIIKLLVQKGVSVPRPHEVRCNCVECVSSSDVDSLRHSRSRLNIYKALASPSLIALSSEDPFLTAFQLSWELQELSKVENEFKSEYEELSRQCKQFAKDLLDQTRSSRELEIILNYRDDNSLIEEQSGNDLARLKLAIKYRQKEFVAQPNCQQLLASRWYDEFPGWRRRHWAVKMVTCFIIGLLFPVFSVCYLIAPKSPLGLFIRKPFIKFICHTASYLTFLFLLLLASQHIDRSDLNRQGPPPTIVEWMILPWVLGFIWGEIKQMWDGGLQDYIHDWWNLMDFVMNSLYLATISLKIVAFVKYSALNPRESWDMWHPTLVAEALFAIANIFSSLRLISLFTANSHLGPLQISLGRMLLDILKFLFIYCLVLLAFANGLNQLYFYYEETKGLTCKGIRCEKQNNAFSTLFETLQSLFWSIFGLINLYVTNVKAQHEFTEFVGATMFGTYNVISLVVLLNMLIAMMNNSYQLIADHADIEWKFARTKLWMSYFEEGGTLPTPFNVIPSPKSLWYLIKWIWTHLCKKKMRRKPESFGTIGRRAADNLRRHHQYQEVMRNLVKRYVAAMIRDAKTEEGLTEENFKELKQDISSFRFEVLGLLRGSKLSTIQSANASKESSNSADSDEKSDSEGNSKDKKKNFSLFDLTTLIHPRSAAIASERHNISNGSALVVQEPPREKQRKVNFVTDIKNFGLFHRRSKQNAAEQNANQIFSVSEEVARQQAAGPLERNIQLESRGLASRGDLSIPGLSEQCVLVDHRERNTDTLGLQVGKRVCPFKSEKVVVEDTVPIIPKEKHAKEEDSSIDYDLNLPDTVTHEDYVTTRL
Procedure: TRPC4 currents were recorded from HEK293T cells with Dox-inducible TRPC4 on the QPatch-HT automated patch clamp system at room temperature (21–24°C) (Biolin Scientific, Stockholm, Sweden). The internal solution contained (in mM): 150 Cs-aspartate, 2 MgCl2, 0.36 CaCl2, 1 EGTA, 4 MgATP, 0.3 NaGTP and 10 HEPES, pH = 7.20 with CsOH (calculated free [Ca^2+] = 100 nM using WebMaxChelator http://www.stanford.edu/~cpatton/maxc.html, assuming an ionic strength of 0.16). The standard external solution contained (in mM): 150 NaCl, 4 KCl, 2 CaCl2, 1 MgCl2, 10 HEPES and 10 D-glucose (pH = 7.40) with NaOH. Currents were elicited by a voltage ramp protocol consisting of a 50 ms step to −100 mV, followed by a 200 ms ramp to +100 mV and 10 ms at +100 mV. Voltage ramps were applied every 10 s from a holding potential of 0 mV. Results were expressed as means ± S.E.M.

[2] = system: A-673 cells; format: cell-based
Procedure: Cell viability was measured 48 hours later using Cell Titer-Glo.

Cc1cc(N2CCCCC2)nc2ccccc12 [ML204]
effect on englerin A induced inward and outward currents [1]: inhibited
doses of ML204 alone at which A-673 cell growth is impaired [2]: higher than 50 μM
rescue of growth inhibition by englerin A ([2]; 50 μM ML204 with 50 nM englerin A, A-673 cells): partially rescued
